Reference: ChEMBL document CHEMBL4482324, “Ash1l inhibitors and methods of treatment therewith” (2017)

Biological target: Histone-lysine N-methyltransferase ASH1L (Homo sapiens, UniProt Q9NR48)
Experiment: Inhibition of MOCR-fused ASH1L SET-BAH ( 2069 to 2833 amino acids) (unknown origin) expressed as in Escherichia coli BL21 (DE3) T1R cells using SAM and chicken mono/dinucleosomes incubated for 1 hr by scintillation counting assay

Row | Compound | IC50
1 | NC(=S)c1cccc(-c2cn(C3CCCCC3)c3cc(CO)ccc23)c1 | < 20 µM
2 | NC(=S)c1cccc(-c2cn(C3CCN(S(=O)(=O)CCCNC(=O)c4ccc5c(c4)C(=O)OC54c5ccc(O)cc5Oc5cc(O)ccc54)CC3)c3cc(CNc4nnc(N)s4)ccc23)c1 | < 20 µM
3 | CCCS(=O)(=O)N1CCC(n2cc(-c3cccc(C(N)=S)c3)c3ccc(CNC(=O)Cc4cc(C)[nH]n4)cc32)CC1 | < 20 µM
4 | NC(=S)c1cccc(-c2cn(CCO)c3ccccc23)c1 | 20 to 100 µM
5 | NC(=S)c1cccc(-c2cn(CCC(F)F)c3cc(CNCCOCCOCCOCCNc4cccc5c4C(=O)N(C4CCC(=O)NC4=O)C5=O)ccc23)c1 (centres undefined) | < 20 µM
6 | NC(=S)c1cccc(-c2cn(CCC(F)F)c3cc(C(F)F)ccc23)c1 | < 20 µM
7 | NC(=S)c1cccc(-c2cn(CCC(F)F)c3cc(N)ccc23)c1 | < 20 µM
8 | NCCn1cc(-c2cccc(C(N)=S)c2)c2ccccc21 | 22 µM
9 | NC(=S)c1cccc(-c2cn(CC(CO)C(F)F)c3cc(CO)ccc23)c1 (centres undefined) | < 20 µM
10 | CCCS(=O)(=O)N1CCC(n2cc(-c3cccc(C(N)=S)c3)c3ccc(CNc4nnc(N)s4)cc32)CC1 | < 20 µM
11 | NC(=S)c1ccc(F)c(-c2ccc(O)cc2)c1 | > 100 µM
12 | NC(=S)c1ccnc(-c2cn(CCC(F)F)c3cc(CO)ccc23)c1 | < 20 µM
13 | NC(=S)c1ccc(-c2ccc(O)cc2)s1 | > 100 µM
14 | NC(=O)c1cc(-c2cn(CCC(F)F)c3cc(CO)ccc23)ccc1O | < 20 µM
15 | NC(=S)c1cccc(-c2cn(CCC3CC3)c3cc(CO)ccc23)c1 | < 20 µM
16 | NC(=S)c1cccc(-c2c[nH]c3cccc(N)c23)c1 | > 100 µM
17 | NCCOCCOc1ccc(-c2cccc(C(N)=S)c2)c2cc[nH]c12 | 20 to 100 µM
18 | NC(=S)c1cccc(-c2cn(CCCC(F)(F)F)c3cc(CNC(=O)c4csc(N)n4)ccc23)c1 | < 20 µM
19 | COCc1cc2c(-c3cccc(C(N)=S)c3)ccc(O)c2[nH]1 | 20 to 100 µM
20 | NC(=S)c1cccc(-c2cn(CC3CC(O)C(O)C3)c3cc(CO)ccc23)c1 (centres undefined) | < 20 µM
21 | Cc1cc(C)n2c1C=C1C=CC(CCCCC(=O)NCCOCCOc3ccc(-c4cccc(C(N)=S)c4)c4cc[nH]c34)=[N+]1[B-]2(F)F | > 100 µM
22 | NC(=S)c1cc(-c2cccc3[nH]ccc23)ccc1N | > 100 µM
23 | NC(=S)c1cccc(-c2cccc3[nH]ncc23)n1 | > 100 µM
24 | Cc1ccc(C(N)=S)cc1-c1cn(C2CCOCC2)c2cc(N)ccc12 | 20 to 100 µM
25 | NC(=S)c1cc(-c2cn(CCC(F)F)c3cc(CO)ccc23)c2ocnc2c1 | < 20 µM

Row | Compound | IC50
26 | NC(=S)c1cccc(-c2cn(CC(CF)CF)c3cc(CF)ccc23)c1 | < 20 µM
27 | NCc1ccc2c(-c3cccc(C(N)=S)c3)cn(C3CCOCC3)c2c1 | < 20 µM
28 | NC(=S)c1cccc(-c2cn(CCCC(F)(F)F)c3cc(NCC(F)(F)F)ccc23)c1 | < 20 µM
29 | NC(=S)c1cccc(-c2ccc(O)cc2F)c1 | > 100 µM
30 | NC(=S)c1cccc(-c2cn(C3CCN(S(=O)(=O)C(F)(F)F)CC3)c3cc(CNC(=O)Cc4ccc[nH]4)ccc23)c1 | < 20 µM
31 | CCCNc1nnc(NCc2ccc3c(-c4cccc(C(N)=S)c4)cn(C4CCN(S(C)(=O)=O)CC4)c3c2)s1 | < 20 µM
32 | CCCS(=O)(=O)N1CCC(n2cc(-c3cccc(C(N)=S)c3)c3ccc(CNC(=O)CCCCc4cccc5c4C(=O)N(C4CCC(=O)NC4=O)C5=O)cc32)CC1 (centres undefined) | < 20 µM
33 | CS(=O)(=O)N1CCC(n2cc(-c3cccc(C(N)=S)c3)c3ccc(CNC(=O)CC4CCNC4)cc32)CC1 (centres undefined) | < 20 µM
34 | NC(=S)c1cccc(-c2cn(CCCC(F)(F)F)c3cc(CNC(=O)c4c[nH]cn4)ccc23)c1 | < 20 µM
35 | NC(=S)c1cccc(-c2cccc3[nH]c(CNCCCO)cc23)c1 | > 100 µM
36 | NC(=S)c1cccc(-c2c[nH]c3cc(C(N)=S)ccc23)c1 | 20 to 100 µM
37 | NC(=S)c1cccc(-c2cn(CC3C(F)(F)C3(F)F)c3cc(CO)ccc23)c1 | < 20 µM
38 | NC(=S)c1cccc(-c2c[nH]c3cccnc23)c1 | > 100 µM
39 | CC(O)c1ccc2c(-c3cccc(C(N)=S)c3)cn(CCC(F)F)c2c1 (centres undefined) | < 20 µM
40 | NC(=S)c1cccc(-c2cn(CO)c3ccccc23)c1 | 20 to 100 µM
41 | NC(=S)c1cccc(-c2cccc3[nH]ccc23)n1 | > 100 µM
42 | NC(=S)c1cccc(-c2c[nH]c3cccc(O)c23)c1 | > 100 µM
43 | NC(=S)c1cccc(-c2cn(CCO)c3cc(N)ccc23)c1 | 20 to 100 µM
44 | COC(=O)c1ccc2c(-c3cccc(C(N)=S)c3)c[nH]c2c1 | 20 to 100 µM
45 | NC(=S)c1cccc(-c2c[nH]c3cc(CNC=O)ccc23)c1 | 20 to 100 µM
46 | OCc1ccc2c(-c3cccc4c3CNC4=S)cn(CCC(F)F)c2c1 | < 20 µM
47 | NC(=S)c1cc(-c2cn(CCC(F)F)c3cc(CO)ccc23)ccc1F | < 20 µM
48 | NC(=S)c1cccc(-c2cccc(OCc3ccccc3)c2)c1 | > 100 µM
49 | NC(=S)c1ccnc(-n2cccc2)c1 | > 100 µM
50 | NC(=S)c1ccc2cc[nH]c2c1 | > 100 µM

Row | Compound | IC50
51 | NC(=S)c1cc(O)cc(-c2cn(CCCC(F)(F)F)c3cc(N)ccc23)c1 | 20 to 100 µM
52 | NC(=S)c1cccc(-c2cccnc2)c1 | > 100 µM
53 | CCCS(=O)(=O)N1CCC(n2cc(-c3cccc(C(N)=S)c3)c3ccc(CNC(=O)COc4cccc5c4C(=O)N(C4CCC(=O)NC4=O)C5=O)cc32)CC1 (centres undefined) | < 20 µM
54 | Cc1ncsc1-c1ccc(CNC(=O)[C@@H]2C[C@@H](O)CN2C(=O)[C@@H](NC(=O)COCCOCCNC(=O)CCC(=O)Nc2ccc3c(-c4cccc(C(N)=S)c4)cn(CC(CF)CF)c3c2)C(C)(C)C)cc1 | < 20 µM
55 | Cc1ccc(C(N)=S)cc1-c1ccc(O)cc1 | > 100 µM
56 | NC(=S)c1cccc(-c2cn(CC(O)(CC(F)(F)F)CC(F)(F)F)c3cc(N)ccc23)c1 | < 20 µM
57 | NC(=S)c1cccc(Oc2ccccc2)c1 | > 100 µM
58 | CS(=O)(=O)N1CCC(n2cc(-c3cccc(C(N)=S)c3)c3ccc(CNC(=O)Cc4cc5ccccc5[nH]4)cc32)CC1 | < 20 µM
59 | CSC(=N)c1cccc(-c2ccccc2)c1 | > 100 µM
60 | Cc1cc(O)ccc1-c1cncc(C(N)=S)c1 | > 100 µM
61 | Cc1c[nH]c2cccc(-c3cccc(C(N)=S)c3)c12 | > 100 µM
62 | NC(=S)c1cccc(-c2cn(CC3C(F)(F)CC3(F)F)c3cc(CO)ccc23)c1 | < 20 µM
63 | CS(=O)(=O)NCc1ccc2c(-c3cccc(C(N)=S)c3)cn(CCCC(F)(F)F)c2c1 | < 20 µM
64 | NC(=S)c1cccc(-c2cn(CCCC(F)(F)F)c3ccc(N)cc23)c1 | 20 to 100 µM
65 | CCNc1c[nH]c(CC(=O)NCc2ccc3c(-c4cccc(C(N)=S)c4)cn(C4CCN(S(C)(=O)=O)CC4)c3c2)c1 | < 20 µM
66 | CNc1ccc2c(-c3cccc(C(N)=S)c3)c[nH]c2c1 | 20 to 100 µM
67 | Cc1cc2c(-c3cccc(C(N)=S)c3)cccc2[nH]1 | > 100 µM
68 | CCCOc1nnc(NCc2ccc3c(-c4cccc(C(N)=S)c4)cn(C4CCN(S(C)(=O)=O)CC4)c3c2)s1 | < 20 µM
69 | CCCS(=O)(=O)N1CCC(n2cc(-c3cccc(C(N)=S)c3)c3ccc(CNc4ncc(N)s4)cc32)CC1 | < 20 µM
70 | NC(=S)c1cccc(-c2cn(C3CCOCC3)c3cc(CNc4nnc(N)s4)ccc23)c1 | < 20 µM
71 | NC(=S)c1cccc(-c2cn(CCC(F)F)c3cc(CO)c(F)cc23)c1 | < 20 µM
72 | NC(=S)c1cccc(-c2cccc3[nH]c(CSP(=S)(c4ccccc4)c4ccccc4)cc23)c1 | > 100 µM
73 | CS(=O)(=O)N1CCC(n2cc(-c3cccc(C(N)=S)c3)c3cc(F)ccc32)CC1 | 20 to 100 µM
74 | CSCCn1cc(-c2cccc(C(N)=S)c2)c2ccccc21 | > 100 µM
